Test results as given in patent EP0426075A1, “Benzylpyrrolidine derivatives as dopamine agonists” (SYNTEX (U.S.A.) INC., priority 1989, dated 1991).

Experiments:
[1] = test system: DA1 receptor; assay: Goldberg in situ renal arterial preparation (renal DA1 assay), intra-arterial injection; type: in vivo, dog; details: for Relative Efficacy to DA1 Standard: optimal response of test compound divided by optimal response of dopamine; for ED50: renal blood flow increase, i.a. bolus into renal artery, anesthetized dog; for Relative Potency to DA1 Standard: standard (dopamine) ED50 divided by test compound ED50
Procedure: (§1) The compounds were subsequently tested following intra-arterial administration in an in situ renal and femoral arterial preparation in the dog, as developed by L.I. Goldberg, to test for DA1 and DA2 dopamine activity, respectively. Details of the methodology are provided in the European J. Pharmacol. 89 :137, 1983, as well as in Hypertension 6 :1-25, 1984.
as §1, with “compounds of this invention” for “compounds”, “were” for “were subsequently”, “Pharmacol. ,” for “Pharmacol.”, “Hypertension ,” for “Hypertension”, “1984. J. L. McNay, L. I. Goldberg JPET 151 :23-31, 1966.” for “1984.”
(§2) The compounds were injected directly into the renal or femoral artery for analysis of DA, or DA2 activity, respectively. […] The compounds were tested for relative activity in comparison to the standard DA, agonist, dopamine or the standard DA2 agonist, DPDA. Specific DA, or DA2 activity of the tested compound was verified by Sch 23390 or domperidone blockade.
(§3) Adult mongrel dogs of either sex (12-20 kg) were anesthetized with pentobarbital sodium (33 mg/kg, i.v.). The animals were intubated and ventilated with room air using a Harvard respirator.
as §1, with “compounds of this invention” for “compounds”, “were” for “were subsequently”, “Pharmacol. ,” for “Pharmacol.”, “Hypertension ,” for “Hypertension”, “1984. J. L. McNay, L. I. Goldberg JPET 151 :23-31, 1966” for “1984.”
as §2, with “of DA1” for “of DA,”, “standard DA1” for “standard DA,”
The abdominal aorta was catheterized with a Millar micro-tip (size: 5F) transducer via the right femoral artery for blood pressure monitoring. The right femoral vein was cannulated with PE-160 tubing for iv saline infusion, as well as supplemental pentobarbital administration. The left renal artery was isolated through a lateral abdominal incision. An electromagnetic flowprobe of the appropriate size (8-11 mm circ.) was placed around the artery and connected to a Carolina Medical electromagnetic flowmeter. Surface ECG leads were placed subcutaneously on the chest and limbs to monitor heart rate. A 25 gauge 3/4" needle bent 90°, 4 mm from the tip, was placed in the renal artery proximal to the probe and connected to an infusion pump delivering saline at a constant rate of 1 ml/min. Following a saline and 1µg norepinephrine (NE) challenge, both given in an injection volume of 0.2 ml, the animal was treated with a phenoxybenzamine, 0.5 mg/kg/min i.a., infusion for a duration of 10-20 minutes as necessary to achieve a complete blockade of the NE challenge. Blood pressure was maintained by supplemental saline infusion (10-20 ml/kg, iv). Bradykinin, a standard for nonspecific vasodilation, was given at 0.60 nmole doses, in 0.2 ml saline, i.a., prior to generating a dose response curve for dopamine in which 4-fold increasing doses, ranging from 3 to 48 nmoles, were injected i.a. in 0.2 ml of saline (i.a. bolus). Test compounds were injected similarly in 4-fold increasing doses up to a maximum of 3000 nmoles. Compounds were then repeated at their optimal dose following Sch 23390 pretreatment (0.05 - 0.10 mg/kg, iv).
Efficacy ratios were determined by division of the optimal response of the test compound by the optimal response of the standard agent.

[2] = test system: DA2 receptor; assay: Goldberg in situ femoral arterial preparation (DA2 assay), intra-arterial injection; type: in vivo, dog; details: for ED50: blood flow increase, i.a. bolus into femoral artery, anesthetized dog; for Relative Efficacy to DA2 Standard: optimal response of test compound divided by optimal response of DPDA; for Relative Potency to DA2 Standard: standard (DPDA) ED50 divided by test compound ED50
Procedure: as §1
as §1, with “compounds of this invention” for “compounds”, “were” for “were subsequently”, “Pharmacol. ,” for “Pharmacol.”, “Hypertension ,” for “Hypertension”, “1984. J. L. McNay, L. I. Goldberg JPET 151 :23-31, 1966.” for “1984.”
as §2, §3
as §1, with “compounds of this invention” for “compounds”, “were” for “were subsequently”, “Pharmacol. ,” for “Pharmacol.”, “Hypertension ,” for “Hypertension”, “1984. J. L. McNay, L. I. Goldberg JPET 151 :23-31, 1966” for “1984.”
as §2, with “of DA1” for “of DA,”, “standard DA1” for “standard DA,”
The thoracic aorta was catheterized with a Millar micro-tip (size 5F) transducer via the right carotid artery for blood pressure monitoring. The right external jugular vein was cannulated with PE-160 tubing for supplemental pentobarbital administration. The left femoral artery was isolated and an electromagnetic flowprobe of the appropriate size (8-11 mm circ.) was placed around the artery and connected to a Caroline Medical electromagnetic flowmeter. Surface ECG leads were placed subcutaneously on the chest and limbs to monitor heart rate. A 25 gauge 3/4" needle bent 90` , 4 mm from the tip, was placed in the femoral artery proximal to the probe and connected to an infusion pump delivering saline at a constant rate of 1 ml/min. Following a saline and bradykinin challenge (0.02 to 0.04 nmoles, in 0.2 ml saline, i.a.), a dose response curve for DPDA was generated by injecting 4-fold increasing doses i.a. ranging from 3 to 48 nmoles in 0.2 ml saline. Test compounds were injected similarly in 4-fold increasing doses up to 3000 nmoles. Compounds were then repeated at their optimal dose following domperidone pretreatment (10-40 Ilg/kg, iv).
Efficacy ratios were determined by division of the optimal response of the test compound by the optimal response of the standard agent. The optimal dose of compound was defined as that which produced a maximum increase in blood flow before causing a change in systemic blood pressure. ED50 values were derived by regression analysis from individually generated dose response curves. Potency ratios were the quotients calculated from the division of the standard agent EDso by the ED50 of the test compound. […] If the inhibition of the test compound was similar to that of dopamine or DPDA, the compound was considered to be a DA, or DA2 agonist, respectively.

SMILES	Relative Efficacy to DA1 Standard [1]	ED50 [1]	Relative Potency to DA1 Standard [1]	ED50 [2]	Relative Efficacy to DA2 Standard [2]	Relative Potency to DA2 Standard [2]
Br.Br.CCCN(CCCCCCN1CCC[C@@H]1Cc1ccc(O)c(O)c1)CCc1ccc(O)cc1 [Test Compound 1, (R)-2-(3,4-dihydroxybenzyl)-1-[6-(N-(4-hydroxyphenethyl)-N-propylamino)hexyl]pyrrolidine dihydrobromide]	1.10	0.87 nmol	6.44	0.02 nmol	1.29	327.50
Br.Br.CCCN(CCCCCCN1CCC[C@@H]1Cc1ccc(O)c(O)c1)CCc1cccc(O)c1 [Test Compound 2, (R)-2-(3,4-dihydroxybenzyl)-1-[6-(N-(3-hydroxyphenethyl)-N-propylamino)hexyl]pyrrolidine dihydrobromide]	0.93	0.34 nmol	17.47	0.04 nmol	1.26	216.00
